A word on the mortality: it is the percentage killed.

Molecules are shown by their SMILES. A value given as a limit tells only on which side of the number the result lay.

The test system of assay [1] is Brown Planthopper (Nilaparvata lugens). The assay is described as follows: Test on controlling effects against brown planthopper (rice seedling dip). Particulars: rice seedling dipped about 10 seconds, second-third instar nymphs, 5th day after the release, 25° C. It is filed as in vivo. The source says: Test on Controlling Effects Against Brown Planthopper (Nilaparvata lugens)
Rice seedling was dipped for about 10 seconds in an insecticidal solution adjusted to bring the concentration of the compound of the present invention to 200 ppm and then dried in air, its root was wrapped with a wet absorbent cotton, and the seedling was put into a test tube. Then, 10 second-third instar nymphs of Brown Planthopper were released therein, and the test tube was covered with a gauze and left in a constant temperature chamber at 25° C. with lightening. On the 5th day after the release, dead nymphs were counted, and the mortality was calculated by the following equation.
Mortality (%)=(number of dead insects/number of released insects)×100

Assay [2] deals with Green Peach Aphid (Myzus persicae). Put plainly: Test on controlling effects against green peach aphid (leaf dip). It is filed as in vivo. The settings on record: foliar, 120 h, Japanese radish leaf dipped about 10 seconds, first instar nymphs, 5 days after the treatment, 25° C. The source says: Test on Controlling Effects Against Green Peach Aphid (Myzus persicae)
A Japanese radish leaf was inserted in a test tube in which water was put, and about 20 first instar nymphs of green peach aphid were released on the leaf. On the next day, the number of nymphs parasitic on the leaf was counted, and then the leaf was dipped for about 10 seconds in an insecticidal solution adjusted to bring the concentration of the compound of the present invention to 200 ppm, dried in air and left in a constant temperature chamber at 25° C. with lightening. Dead nymphs were counted 5 days after the treatment, and the mortality was calculated by the following equation. The insects dropped from the leaf or presented toxic symptom were counted as dead insects.
Mortality (%)=(1−(number of survived insects/number of treated insects))×100

`CCON=C(c1ncccc1C(F)(F)F)n1cncn1` [compound 25] had a mortality at 200 ppm in assay [1] of at least 90%.

With `CCON=C(c1ncc(C(F)(F)F)cc1Br)n1cncn1` [compound 31], the mortality at 200 ppm in assay [2] and in assay [1] was at least 90% each time.

`CCON=C(c1cccc(C(F)(F)F)n1)n1cncn1` [compound 83] displayed a mortality at 200 ppm in assay [1] of at least 90%.

Compound `CCON=C(c1nc(C(F)(F)F)ccc1Cl)n1cncn1` [compound 84] came in with a mortality at 200 ppm in assay [1] of at least 90%.

For the compound `CCON=C(c1ncc(C(F)(F)F)cc1Cl)n1cnnc1` [compound 12], in assay [1], the mortality at 200 ppm was at least 90%.

As to `CC(C)ON=C(c1ncc(C(F)(F)F)cc1Cl)n1cncn1` [Compound No. 13, [3-chloro-5-(trifluoromethyl)pyridin-2-yl](1H-1,2,4-triazol-1-yl)methanone O-isopropyl oxime], the mortality at 200 ppm in assay [1] was at least 90%.

`CCON=C(c1ncc(C(F)(F)F)cc1Cl)n1ccnc1` [compound 11]: the mortality at 200 ppm in assay [2] and in assay [1] was at least 90% in each case.

With `CCON=C(c1cc(C(F)(F)F)ccn1)n1cncn1` [compound 26], the mortality at 200 ppm in assay [1] is at least 90%.

The compound `CCON=C(c1ccc(C(F)(F)F)cn1)n1cncn1` [compound 24] returned a mortality at 200 ppm in assay [1] of at least 90%.

Take `CCON=C(c1cccc(C)n1)n1cncn1` [compound 23]: the mortality at 200 ppm in assay [1] is at least 90%.

Take `CON=C(c1ncc(C(F)(F)F)cc1Cl)n1cncn1` [compound 14]: the mortality at 200 ppm in assay [2] and in assay [1] was at least 90% in each case.

For the compound `CCON=C(c1ncc(C(F)(F)F)cc1Cl)n1cncn1` [Compound No. 10, [3-chloro-5-(trifluoromethyl)pyridin-2-yl](1H-1,2,4-triazol-1-yl)methanone O-oxime], the mortality at 200 ppm in assay [2] and in assay [1] was at least 90% each time.

As to `FC(F)(F)c1cnc(C(=NOCC2CC2)n2cncn2)c(Cl)c1` [compound 32], the mortality at 200 ppm in assay [2] and in assay [1] was at least 90% throughout.

For `CCON=C(c1ncc(C(F)(F)F)cc1C)n1cncn1` [compound 33, [3-methyl-5-(trifluoromethyl)pyridin-2-yl](1H-1,2,4-triazol-1-yl)methanone O-ethyl oxime], the mortality at 200 ppm in assay [2] and in assay [1] was at least 90% each time.

The values above are taken from patent US20110195930A1, “PYRIDINE DERIVATIVE OR ITS SALT, PESTICIDE CONTAINING IT AND PROCESS FOR ITS PRODUCTION” (Ishihara Sangyo Kaisha, Ltd., priority 2008, published 2011).
